{"source": "patent US7282340B2", "about": "“Methods for identifying an analog that promotes nerve regeneration” (Oregon Health Sciences University, priority 1997, dated 2007)", "key": {"rat sciatic nerve [1]": {"test_system": "rat sciatic nerve", "settings": "cited from earlier work"}, "[2]": {"test_system": "SH-SY5Y human neuroblastoma cells", "assay": "Neurite outgrowth (neurite length) in NGF-treated SH-SY5Y cells", "type": "cell-based", "settings": "for Mean neurite length: mean ± SEM", "procedure": "Cell cultures. SH-SY5Y human neuroblastoma cells were maintained in DMEM medium (GIBCO) supplemented with 10% fetal calf serum (SIGMA), 50 IU>mL penicillin, and […] streptomycin (GIBCO) at 37° C. in 7% CO^2. Cells were plated in six-well plates at 1×10^6 cells/well and treated with […] aphidicolin (SIGMA). At five days, cells were washed, treated with nerve growth factor (NGF) (Boehringer Mannheim, Indianapolis, Ind.) at 10 ng/mL (to induce process outgrowth) in the presence or absence of V-10,367 (1, 10, or 100 nM) (Armistead et al., Acta Cryst., D51:522-528, 1995; FIG. 1). Media was changed at 96 hours and replaced with fresh media with or without the compounds (NGF and V-10,367) for an additional 72 hours (total time, 168 hours). All experiments were run in duplicate wells and repeated at least twice for reproducibility.\nLight morphometry of neurite lengths. […] Neurite lengths were measured on photographic prints using a Houston Instrument HI-PAD digitizing tablet connected to an IBM XT computer with appropriate software (Bioquant IV, R&M Biometrics, Nashville, Tenn.); only those processes greater than two times the cell body length were measured. Data from identically treated wells were not different and were therefore combined. […] Histograms were compared using a Mann-Whitney U test, which makes no assumptions about the shape of the distribution."}, "[3]": {"assay": "Single-dose pharmacokinetics in the rat", "type": "in vivo, Sprague-Dawley rat", "procedure": "Pharmacokinetics of V-10,367. To determine the appropriate daily dose of V-10,367 for administration to rats, single-dose pharmacokinetics of V-10,367 were evaluated in the rat following intravenous and subcutaneous dosing. […] Since these concentrations were sufficiently above the 10 nM concentration needed to cause neurite extension in vitro, a subcutaneous dose of 200 mg/kg twice daily was selected for subsequent experiments."}, "rat sciatic nerve [4]": {"test_system": "rat sciatic nerve", "assay": "Functional recovery after sciatic nerve crush", "type": "in vivo, Sprague-Dawley rats", "procedure": "(§1) Animals and surgical procedure. Ten six-week-old Sprague-Dawley rats were anesthetized with 2% halothane, the right sciatic nerve exposed, and the nerve crushed twice (for a total of 30 sec using a No. 7 Dumont jeweler's forceps) at the level of the hip. The crush site was marked by tying a sterile 9-0 suture through the perineurial sheath.\n(§2) Preparation and administration of V-10,367. V-10,367-HCl (molecular weight, 639.18) was dissolved in vehicle comprising 40% propylene glycol:10% ethanol:50% water. Fresh solutions were prepared at the time of each injection. Three rats received subcutaneous injections (200 mg/kg) every 12 hours (beginning immediately after the nerve crush; totaling 400 mg/kg/day) in the back of the neck using a 25 g needle. Control animals (n=3) received injections every 12 hours of vehicle only. An additional control group (n=3) received daily injections of saline. Animals were weighed daily and the weights plotted over the 18-day period of the study.\nTwo separate additional studies were performed. In the first study, three axotomized rats received a single daily subcutaneous injection (200 mg/kg) as above. In the second study, V-10,367 was delivered as to axotomized rats as a continuous infusion. Osmotic pumps (Alza, Palo Alto, Calif.) model 2ML2 filled with V-10,367-HCl (200 mg/ml) or vehicle (two per group) were implanted under the skin on the left side of the animal.\nBehavioral assessment. Functional recovery was assessed in FK506-treated animals used for morphological study only. Animals were examined blindly by two investigators daily until the day of perfusion (18 days). […] To obtain records during walking, the hind feet were marked with tempera paint and the animals allowed to freely walk across a sheet of paper between 14-18 days. Toe spread during walking was defined as the distance between the first and fifth digits, measured to the nearest 0.5 mm; three foot prints were analyzed from each animal. This analysis represents a reliable and reproducible index of functional recovery which, unlike the sciatic nerve function index, is not influenced by how fast the animal walks (Walker et al., Restor. Neurol. Neurosci. 6:189-193, 1994)."}, "soleus nerve": {"test_system": "soleus nerve", "assay": "Electron microscopic morphometry of axonal areas in soleus nerve after sciatic nerve crush", "type": "in vivo, Sprague-Dawley rats", "procedure": "as §1\nas §2, with “Animals were weighed daily and the weights plotted over the 18-day period of the study.” left out\nElectron microscopic analysis of axons. […] Axonal areas of both myelinated and unmyelinated fibers were determined by tracing the axolemma using a Houston Instrument HI-PAD digitizing tablet connected to an IBM XT computer with appropriate software (Bioquant IV, R&M biometrics, Nashville, Tenn.). […] For each group (i.e., 400 and 200 mg/kg/day V-10,367-treated and vehicle-treated), mean values and standard areas were calculated for the whole population of axons. […]"}, "[5]": {"settings": "rat, in vivo, sc, 400 mg/kg/day", "procedure": "as §2"}, "FKBP-12": {"molecular_target": "FKBP-12 (Homo sapiens, UniProt P62942)", "sequence (P62942 whole entry, species assumed)": "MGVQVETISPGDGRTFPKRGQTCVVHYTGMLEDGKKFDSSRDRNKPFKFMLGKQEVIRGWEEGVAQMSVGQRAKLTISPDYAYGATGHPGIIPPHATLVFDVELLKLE", "assay": "FKBP-12 inhibition", "type": "biochemical", "text": "Assays for inhibition of FKBP-12 rotamase activity are described in Harding et al. (Nature 341:758-760, 1989), Siekierka et al., Nature 341:755-757, 1989, and U.S. Pat. No. 5,654,332, for example. Chymotrypsin is able to cleave p-nitroanilide from the trans form of the artificial substrate N-succinyl-Ala-Ala-Pro-Phe-p-nitroanilide, but not from the cis form. The assays of Harding et al. and Siekierka et al. employ a reaction mixture that includes the cis form of N-succinyl-Ala-Ala-Pro-Phe-p-nitroanilide, FKBP-12, a test compound, and chymotrypsin, and spectrophotometrically measure the release of p-nitroanilide as a result of isomerization of the substrate."}, "[6]": {"settings": "single intravenous dose 17.7 mg/kg"}, "[7]": {"settings": "subcutaneous injection 174 mg/kg"}, "[8]": {"settings": "continuous infusion 18 days via osmotic minipump"}}, "note": "“And” between values parts separate entries of the source, which are not always exact repeats. Equal entries are not always repeated. Marks after values point to notes of the source that are not given here.", "data": [{"compound": "CC[C@@H]1/C=C(\\C)[C@@H](O)[C@H](C)C[C@H](OC)[C@H]2O[C@@](O)(C(=O)C(=O)N3CCCC[C@H]3C(=O)O[C@H](/C(C)=C/[C@@H]3CC[C@@H](O)[C@H](OC)C3)[C@H](C)[C@@H](O)CC1=O)[C@H](C)C[C@@H]2OC", "note": "[L-685,818, 18-OH, 21-ethyl-FK506]", "values": [{"measurement": "Functional recovery", "setting": "rat sciatic nerve [1]; topical administration to the nerve crush site", "result": "accelerate functional recovery"}]}, {"compound": "COc1cc(C(=O)C(=O)N2CCCC[C@H]2C(=O)OC(CCCc2ccccc2)CCCc2cccnc2)cc(OC)c1OC.Cl", "note": "(some centres unmarked) [V-10,367]", "values": [{"measurement": "Mean neurite length", "setting": "[2]; 1 nM V-10,367 + NGF 10 ng/mL, 96 h", "result": "110 ± 2.2", "unit": "μm"}, {"measurement": "Mean neurite length", "setting": "[2]; 1 nM V-10,367 + NGF 10 ng/mL, 168 h", "result": "136 ± 5.8*^,Δ μm"}, {"measurement": "Mean neurite length", "setting": "[2]; 10 nM V-10,367 + NGF 10 ng/mL, 96 h", "result": "138 ± 9.4", "unit": "μm"}, {"measurement": "Mean neurite length", "setting": "[2]; 10 nM V-10,367 + NGF 10 ng/mL, 168 h", "result": "148 ± 8.6*^,††,Δ μm"}, {"measurement": "Mean neurite length", "setting": "[2]; 100 nM V-10,367 + NGF 10 ng/mL, 96 h", "result": "121 ± 6.0", "unit": "μm"}, {"measurement": "Mean neurite length", "setting": "[2]; 100 nM V-10,367 + NGF 10 ng/mL, 168 h", "result": "118 ± 4.2*^,† μm"}, {"measurement": "Number of processes per cell or branching of cell processes", "setting": "[2]; 1-100 nM with NGF 10 ng/mL", "result": "No change"}, {"measurement": "Concentration of maximal effect on neurite length", "setting": "[2]; tested at 1, 10, 100 nM with NGF 10 ng/mL", "result": 10, "unit": "nM"}, {"measurement": "Average blood clearance", "setting": "[3]; [6]", "result": 84, "unit": "mL/min/kg"}, {"measurement": "Elimination half-life", "setting": "[3]; [6]", "result": "about 1.3 hours"}, {"measurement": "Volume of distribution at steady state", "setting": "[3]; [6]", "result": 2.76, "unit": "L/kg"}, {"measurement": "Average Cmax", "setting": "[3]; [7]", "result": 171, "unit": "ng/mL"}, {"measurement": "Cmax", "setting": "[3]; [7]", "result": 285, "unit": "nM"}, {"measurement": "Trough concentrations at 8 hours post-dose", "setting": "[3]; subcutaneous injection 174 mg/kg, 174 mg/kg", "result": "27-252 ng/mL and 45-420 nM"}, {"measurement": "Apparent half-life following subcutaneous administration", "setting": "[3]; subcutaneous vs intravenous", "result": "prolonged"}, {"measurement": "Toe spread: distance between the first and fifth digits", "setting": "rat sciatic nerve [4]; axotomized side, n=3, vehicle 11.0±0.58, uninjured side 19.5±0.39", "result": "13.0±0.41", "unit": "mm"}, {"measurement": "Functional recovery compared to vehicle-treated controls", "setting": "rat sciatic nerve [4]; [8]", "result": "earlier functional recovery"}, {"measurement": "Efficacy upon oral (gavage) administration", "setting": "rat sciatic nerve [4]; oral gavage, rat sciatic nerve crush", "result": "effective"}, {"measurement": "Days until onset of ability to right the foot and move the toes (onset)", "setting": "rat sciatic nerve [4]; s.c. V-10,367, n=3, mean ± SEM, vehicle 15.3±0.33", "result": "13.7 ± 0.33", "unit": "days"}, {"measurement": "Days until ability to walk on hind feet and toes (walking)", "setting": "rat sciatic nerve [4]; s.c. V-10,367, n=3, mean ± SEM, vehicle 16.3±0.33", "result": "14 ± 0", "unit": "days"}, {"measurement": "Increase of mean axonal areas compared to vehicle", "setting": "soleus nerve; 18 days after axotomy, subcutaneous injections", "result": 50, "unit": "%"}, {"measurement": "Increase of mean axonal calibers compared to vehicle", "setting": "soleus nerve; [8]", "result": 40, "unit": "%"}, {"measurement": "Tolerability", "setting": "[5]", "result": "well tolerated"}, {"measurement": "FKBP-12 inhibition", "setting": "FKBP-12", "result": "potent FKBP-12 inhibitor"}]}, {"compound": "cyclosporin A", "values": [{"measurement": "Nerve regeneration in the rat sciatic nerve following a crush injury", "setting": "rat sciatic nerve [1]; rat, in vivo", "result": "does not increase nerve regeneration"}]}]}
